Source: US20250326753A1, “DUAL CXCR4-BTK INHIBITORS” (X4 Pharmaceuticals, Inc., priority 2022, published 2025)
Read-outs that look alike come from different tables or passages of the source.

What was measured:
Type in all cases: biochemical
ERBB4 = target: T1, ERBB4 (Homo sapiens, UniProt Q15303); assay: PanQinase kinase panel: ERBB4; conditions: read-out: INHIBITORY EFFECT @ 1 uM: ERBB4
T1 construct: purchased Reaction Biology Europe GmbH
Experimental: (§1) Screening procedures were performed in accordance with the company's on-line protocol [accessed on-line Mar.
(§2) For each kinase, the median value of the cpm of three wells was defined as “low control” (n=3). This value reflects unspecific binding of radioactivity to the plate in the absence of a protein kinase but in the presence of the substrate. Additionally, for each kinase the median value of the cpm of three other wells was taken as the “high control,” i.e. full activity in the absence of any inhibitor (n=3). The difference between high and low control of each enzyme was taken as 100% activity.
(§3) As part of the data evaluation the low control of each kinase was subtracted from the high control value as well as from their corresponding “compound values”.

ACK1 = target: T2, ACK1 (Homo sapiens, UniProt Q07912); assay: PanQinase kinase panel: ACK1
T2 construct: purchased Reaction Biology Europe GmbH
Experimental: as §1, §2
(§4) As part of the data evaluation the low control of each kinase was subtracted from the high control value as well as from their corresponding “compound values”. The residual activity (in %) for each compound well was calculated by using the following formula: Res. Activity (%)=100×[(signal of compound−low control)/(high control−low control)].

HCK = target: T3, HCK (Homo sapiens, UniProt P08631); assay: PanQinase kinase panel: HCK; conditions: read-out: INHIBITORY EFFECT @ 1 uM: HCK
T3 construct: purchased Reaction Biology Europe GmbH
Experimental: as §1, §2, §4

JAK3 = target: T4, JAK3 (Homo sapiens, UniProt P52333); assay: PanQinase kinase panel: JAK3; conditions: for inhibition at 1 µM: read-out: INHIBITORY EFFECT @ 1 uM: JAK3
T4 construct: purchased Reaction Biology Europe GmbH
T4 sequence (P52333 1-1124): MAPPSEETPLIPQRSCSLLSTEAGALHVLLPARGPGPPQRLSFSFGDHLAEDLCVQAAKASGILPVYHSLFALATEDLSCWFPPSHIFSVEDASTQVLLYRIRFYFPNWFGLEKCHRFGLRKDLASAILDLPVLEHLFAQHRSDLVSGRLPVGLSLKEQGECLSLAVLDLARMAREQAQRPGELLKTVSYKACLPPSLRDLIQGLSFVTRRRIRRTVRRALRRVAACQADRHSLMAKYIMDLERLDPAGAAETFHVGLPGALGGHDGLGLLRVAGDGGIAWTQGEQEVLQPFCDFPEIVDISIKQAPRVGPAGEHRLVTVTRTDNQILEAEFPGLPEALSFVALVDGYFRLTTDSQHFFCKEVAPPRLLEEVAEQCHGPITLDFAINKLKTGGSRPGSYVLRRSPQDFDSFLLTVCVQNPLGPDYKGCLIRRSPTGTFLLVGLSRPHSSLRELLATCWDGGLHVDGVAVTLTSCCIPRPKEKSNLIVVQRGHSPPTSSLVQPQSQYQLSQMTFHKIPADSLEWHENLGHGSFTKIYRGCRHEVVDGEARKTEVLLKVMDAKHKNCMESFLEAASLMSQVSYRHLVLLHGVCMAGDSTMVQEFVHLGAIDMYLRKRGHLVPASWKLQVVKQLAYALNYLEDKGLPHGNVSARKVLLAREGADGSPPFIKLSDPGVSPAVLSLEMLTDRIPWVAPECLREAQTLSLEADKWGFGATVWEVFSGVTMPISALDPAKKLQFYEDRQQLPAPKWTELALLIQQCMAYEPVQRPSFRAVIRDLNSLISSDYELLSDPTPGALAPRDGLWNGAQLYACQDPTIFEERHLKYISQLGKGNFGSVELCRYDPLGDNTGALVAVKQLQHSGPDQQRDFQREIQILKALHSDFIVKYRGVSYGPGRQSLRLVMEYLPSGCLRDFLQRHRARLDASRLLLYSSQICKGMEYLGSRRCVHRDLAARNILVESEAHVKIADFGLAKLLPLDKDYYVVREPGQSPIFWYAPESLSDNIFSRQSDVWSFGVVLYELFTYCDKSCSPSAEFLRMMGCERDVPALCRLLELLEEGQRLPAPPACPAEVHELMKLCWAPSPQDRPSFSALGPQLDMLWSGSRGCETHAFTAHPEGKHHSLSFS
Experimental: as §1, §2, §3

LRRK2 = target: T5, LRRK2 (Homo sapiens, UniProt Q5S007); assay: PanQinase kinase panel: LRRK2; conditions: read-out: INHIBITORY EFFECT @ 1 uM: LRRK2
T5 construct: purchased Reaction Biology Europe GmbH
T5 sequence (Q5S007 whole entry): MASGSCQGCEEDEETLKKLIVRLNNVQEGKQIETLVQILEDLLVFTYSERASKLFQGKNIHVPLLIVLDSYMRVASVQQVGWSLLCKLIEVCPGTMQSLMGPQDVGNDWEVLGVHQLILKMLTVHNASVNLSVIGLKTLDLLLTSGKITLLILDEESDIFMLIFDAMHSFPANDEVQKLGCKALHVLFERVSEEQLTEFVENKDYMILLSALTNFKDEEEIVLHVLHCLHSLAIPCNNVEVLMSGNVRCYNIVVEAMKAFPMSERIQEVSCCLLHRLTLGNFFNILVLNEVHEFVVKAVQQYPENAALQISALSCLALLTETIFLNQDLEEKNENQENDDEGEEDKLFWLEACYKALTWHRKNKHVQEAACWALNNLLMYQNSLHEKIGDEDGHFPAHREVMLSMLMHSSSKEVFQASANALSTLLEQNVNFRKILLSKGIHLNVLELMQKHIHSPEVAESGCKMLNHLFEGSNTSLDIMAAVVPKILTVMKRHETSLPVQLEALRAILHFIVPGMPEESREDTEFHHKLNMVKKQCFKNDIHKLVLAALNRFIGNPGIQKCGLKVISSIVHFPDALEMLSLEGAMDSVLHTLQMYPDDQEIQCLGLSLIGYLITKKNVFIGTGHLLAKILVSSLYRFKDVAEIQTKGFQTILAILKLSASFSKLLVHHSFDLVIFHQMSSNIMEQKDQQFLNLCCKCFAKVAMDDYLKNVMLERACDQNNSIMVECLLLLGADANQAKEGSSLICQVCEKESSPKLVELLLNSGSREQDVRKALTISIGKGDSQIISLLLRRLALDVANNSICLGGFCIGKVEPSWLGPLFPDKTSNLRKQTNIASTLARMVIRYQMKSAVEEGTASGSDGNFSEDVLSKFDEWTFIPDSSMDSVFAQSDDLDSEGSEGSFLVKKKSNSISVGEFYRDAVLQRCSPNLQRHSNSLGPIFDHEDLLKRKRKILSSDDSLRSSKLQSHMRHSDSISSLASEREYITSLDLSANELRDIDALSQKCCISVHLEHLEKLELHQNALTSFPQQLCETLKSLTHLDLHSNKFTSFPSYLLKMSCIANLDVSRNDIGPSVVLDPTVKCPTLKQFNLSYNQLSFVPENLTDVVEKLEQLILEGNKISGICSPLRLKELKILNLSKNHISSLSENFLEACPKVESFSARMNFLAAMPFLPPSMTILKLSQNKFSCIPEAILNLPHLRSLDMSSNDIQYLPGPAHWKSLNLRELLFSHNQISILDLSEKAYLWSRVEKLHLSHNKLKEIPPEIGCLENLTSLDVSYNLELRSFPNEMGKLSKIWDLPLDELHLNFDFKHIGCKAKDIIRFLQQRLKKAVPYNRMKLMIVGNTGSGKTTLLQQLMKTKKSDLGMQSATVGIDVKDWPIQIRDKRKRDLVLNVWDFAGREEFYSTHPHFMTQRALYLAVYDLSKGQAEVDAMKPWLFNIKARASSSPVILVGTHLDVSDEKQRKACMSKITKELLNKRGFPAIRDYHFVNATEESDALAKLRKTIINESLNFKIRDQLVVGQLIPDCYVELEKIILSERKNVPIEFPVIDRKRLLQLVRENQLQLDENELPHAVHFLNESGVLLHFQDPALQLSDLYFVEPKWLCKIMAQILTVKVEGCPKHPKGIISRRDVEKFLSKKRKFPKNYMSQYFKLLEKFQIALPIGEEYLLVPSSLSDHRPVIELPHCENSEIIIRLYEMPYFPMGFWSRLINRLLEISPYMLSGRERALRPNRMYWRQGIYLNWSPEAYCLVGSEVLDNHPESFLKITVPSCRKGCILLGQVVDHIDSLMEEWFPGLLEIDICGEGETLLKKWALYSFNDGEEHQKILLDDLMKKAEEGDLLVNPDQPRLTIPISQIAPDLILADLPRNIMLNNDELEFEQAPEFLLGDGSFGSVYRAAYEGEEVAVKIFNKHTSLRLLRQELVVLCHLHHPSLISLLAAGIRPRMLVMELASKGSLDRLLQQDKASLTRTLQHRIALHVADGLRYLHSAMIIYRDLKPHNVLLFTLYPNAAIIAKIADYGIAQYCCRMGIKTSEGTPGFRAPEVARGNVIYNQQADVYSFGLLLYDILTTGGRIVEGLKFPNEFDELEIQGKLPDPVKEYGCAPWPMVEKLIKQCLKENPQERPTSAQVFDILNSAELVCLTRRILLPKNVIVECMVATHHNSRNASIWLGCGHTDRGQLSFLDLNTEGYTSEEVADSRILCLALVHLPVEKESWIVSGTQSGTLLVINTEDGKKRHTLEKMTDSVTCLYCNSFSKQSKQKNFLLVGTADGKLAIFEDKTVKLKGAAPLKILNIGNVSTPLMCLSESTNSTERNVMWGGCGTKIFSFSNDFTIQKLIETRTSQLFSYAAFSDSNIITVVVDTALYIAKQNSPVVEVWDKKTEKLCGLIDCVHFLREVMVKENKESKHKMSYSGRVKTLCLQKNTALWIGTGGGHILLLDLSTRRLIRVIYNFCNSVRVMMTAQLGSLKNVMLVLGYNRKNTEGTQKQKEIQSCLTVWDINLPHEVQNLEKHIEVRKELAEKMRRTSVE
Experimental: as §1, §2, §4

MAP4K5 = target: T6, MAP4K5 (Homo sapiens, UniProt Q9Y4K4); assay: PanQinase kinase panel: MAP4K5; conditions: read-out: INHIBITORY EFFECT @ 1 uM: MAP4K5
T6 construct: purchased Reaction Biology Europe GmbH
T6 sequence (Q9Y4K4 whole entry): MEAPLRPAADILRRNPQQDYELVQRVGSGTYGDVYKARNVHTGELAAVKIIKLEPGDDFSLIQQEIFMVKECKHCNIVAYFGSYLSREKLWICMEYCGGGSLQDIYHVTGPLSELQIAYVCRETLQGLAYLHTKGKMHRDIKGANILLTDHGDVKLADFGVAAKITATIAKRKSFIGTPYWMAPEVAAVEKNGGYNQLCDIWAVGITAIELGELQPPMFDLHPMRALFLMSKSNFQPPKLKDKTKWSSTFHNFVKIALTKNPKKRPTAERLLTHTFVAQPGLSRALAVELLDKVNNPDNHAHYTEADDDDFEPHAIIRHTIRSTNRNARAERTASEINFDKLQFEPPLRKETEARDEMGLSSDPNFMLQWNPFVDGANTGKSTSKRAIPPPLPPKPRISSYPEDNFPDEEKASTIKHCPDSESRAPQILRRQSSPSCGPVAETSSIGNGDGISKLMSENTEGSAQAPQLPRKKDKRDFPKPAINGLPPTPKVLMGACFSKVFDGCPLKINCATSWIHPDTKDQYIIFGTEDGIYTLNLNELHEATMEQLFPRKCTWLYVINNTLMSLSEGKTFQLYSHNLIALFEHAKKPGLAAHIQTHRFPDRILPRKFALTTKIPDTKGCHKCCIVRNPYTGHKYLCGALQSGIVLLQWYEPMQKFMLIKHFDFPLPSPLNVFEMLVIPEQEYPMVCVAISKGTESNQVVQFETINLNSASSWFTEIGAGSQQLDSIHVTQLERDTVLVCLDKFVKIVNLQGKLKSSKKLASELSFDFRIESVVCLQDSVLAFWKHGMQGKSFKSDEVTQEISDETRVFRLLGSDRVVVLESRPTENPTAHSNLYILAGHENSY
Experimental: as §1, §2, §4

MEKK2 = target: T7, MEKK2 (Homo sapiens, UniProt Q9Y2U5); assay: PanQinase kinase panel: MEKK2; conditions: read-out: INHIBITORY EFFECT @ 1 uM: MEKK2
T7 construct: purchased Reaction Biology Europe GmbH
T7 sequence (Q9Y2U5 1-619): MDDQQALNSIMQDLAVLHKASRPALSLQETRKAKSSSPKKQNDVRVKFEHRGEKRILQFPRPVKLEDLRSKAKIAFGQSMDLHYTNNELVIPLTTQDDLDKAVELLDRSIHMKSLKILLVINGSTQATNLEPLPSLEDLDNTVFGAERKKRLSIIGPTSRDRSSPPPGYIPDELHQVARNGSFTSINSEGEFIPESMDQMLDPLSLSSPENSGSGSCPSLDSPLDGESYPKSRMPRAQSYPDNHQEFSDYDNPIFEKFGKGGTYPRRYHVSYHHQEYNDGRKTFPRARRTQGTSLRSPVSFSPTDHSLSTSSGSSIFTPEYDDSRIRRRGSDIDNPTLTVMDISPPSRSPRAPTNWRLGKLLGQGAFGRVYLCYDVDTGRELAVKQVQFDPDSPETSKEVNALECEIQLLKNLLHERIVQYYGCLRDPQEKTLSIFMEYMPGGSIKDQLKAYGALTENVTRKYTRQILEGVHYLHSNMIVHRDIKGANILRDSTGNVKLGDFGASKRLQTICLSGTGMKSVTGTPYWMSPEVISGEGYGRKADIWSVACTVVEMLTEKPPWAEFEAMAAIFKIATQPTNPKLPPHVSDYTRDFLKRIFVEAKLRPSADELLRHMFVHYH
Experimental: as §1, §2, §4

[1] = read-out: INHIBITORY EFFECT @ 1 uM: ACK1

T1 sequence (Q15303 26-1308): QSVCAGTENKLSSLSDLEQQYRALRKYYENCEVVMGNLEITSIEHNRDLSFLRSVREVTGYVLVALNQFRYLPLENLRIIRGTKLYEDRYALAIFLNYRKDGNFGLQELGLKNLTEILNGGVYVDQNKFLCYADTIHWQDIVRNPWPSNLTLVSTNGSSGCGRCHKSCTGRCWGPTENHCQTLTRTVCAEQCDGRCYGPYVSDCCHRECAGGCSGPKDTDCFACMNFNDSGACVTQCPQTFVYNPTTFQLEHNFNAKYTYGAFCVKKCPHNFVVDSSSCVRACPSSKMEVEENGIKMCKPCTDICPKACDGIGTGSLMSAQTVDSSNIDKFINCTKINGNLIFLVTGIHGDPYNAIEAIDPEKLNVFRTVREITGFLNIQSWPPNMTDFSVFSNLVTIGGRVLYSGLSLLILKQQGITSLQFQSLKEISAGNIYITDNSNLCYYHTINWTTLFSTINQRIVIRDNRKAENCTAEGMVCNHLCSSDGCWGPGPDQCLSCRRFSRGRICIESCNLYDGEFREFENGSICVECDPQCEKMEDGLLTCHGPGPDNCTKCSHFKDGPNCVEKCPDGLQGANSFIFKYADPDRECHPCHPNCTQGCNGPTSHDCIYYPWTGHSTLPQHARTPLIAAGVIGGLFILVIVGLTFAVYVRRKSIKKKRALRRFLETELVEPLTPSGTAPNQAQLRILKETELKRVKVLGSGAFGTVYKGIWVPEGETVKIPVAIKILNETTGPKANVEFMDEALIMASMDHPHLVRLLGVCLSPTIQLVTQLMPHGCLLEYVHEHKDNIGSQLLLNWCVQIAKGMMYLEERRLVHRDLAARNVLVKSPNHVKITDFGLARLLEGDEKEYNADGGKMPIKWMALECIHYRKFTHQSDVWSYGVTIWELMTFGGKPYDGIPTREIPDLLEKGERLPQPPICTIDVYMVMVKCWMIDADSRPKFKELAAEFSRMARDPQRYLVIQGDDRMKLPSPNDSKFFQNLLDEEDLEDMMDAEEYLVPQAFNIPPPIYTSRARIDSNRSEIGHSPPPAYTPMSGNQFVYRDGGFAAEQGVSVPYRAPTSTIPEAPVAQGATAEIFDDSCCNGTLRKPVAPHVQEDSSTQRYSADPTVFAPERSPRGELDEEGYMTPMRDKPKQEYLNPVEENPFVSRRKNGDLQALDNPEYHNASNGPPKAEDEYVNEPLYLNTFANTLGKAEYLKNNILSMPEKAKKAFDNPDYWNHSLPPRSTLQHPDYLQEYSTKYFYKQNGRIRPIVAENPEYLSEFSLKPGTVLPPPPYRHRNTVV

SMILES	inhibition at 1 µM (ERBB4) [%]	inhibition at 1 µM (ACK1; [1]) [%]	inhibition at 1 µM (HCK) [%]	inhibition at 1 µM (JAK3) [%]	inhibition at 1 µM (LRRK2) [%]	inhibition at 1 µM (MAP4K5) [%]	inhibition at 1 µM (MEKK2) [%]	inhibition at 1 µM (ACK1; 1 μM, read-out: inhibitor effect on ACK1) [%]	INHIBITORY EFFECT @ 1 uM: JAK3 (JAK3; 1 uM)
O=C(c1ccc(Oc2ccccc2)cc1Cl)c1c[nH]c2ncnc(N[C@@H]3CC[C@@H](CO)OC3)c12 [ARQ-531, (2-chloro-4-phenoxyphenyl) (4-(((3R,6S)-6-(hydroxymethyl)tetrahydro-2H-pyran-3-yl)amino)-7H-pyrrolo[2,3-d]pyrimidin-5-yl) methanone]	90 to 100	90 to 100	70 to 89	50 to 69	50 to 69	50 to 69	70 to 89	–	–
Cc1cccnc1[C@H]1CCC[C@@H](c2ncccc2C)N1CCN1CCN(C(=O)c2ccc(-c3cc4c(-c5cccc(NC(=O)c6ccccc6)c5C)ncnc4[nH]3)cc2)CC1 [Compound I-10, N-(3-(6-(4-(4-(2-((2R,6S)-2,6-bis(3-methylpyridin-2-yl)piperidin-1-yl)ethyl)piperazine-1-carbonyl)phenyl)-7H-pyrrolo[2,3-d]pyrimidin-4-yl)-2-methylphenyl)benzamide]	< 50	90 to 100	< 50	< 50	< 50	< 50	< 50	≥ 90	–
COc1ccc(F)cc1C(=O)NCc1ccc(-c2nn([C@@H](C)C(F)(F)F)c(N)c2C(N)=O)cc1 [LOXO-305, pirtobrutinib]	50 to 69	< 50	< 50	< 50	< 50	< 50	< 50	–	–
C=CC(=O)N1CCC([C@@H]2CCNc3c(C(N)=O)c(-c4ccc(Oc5ccccc5)cc4)nn32)CC1 [Zanubrutinib, (7S)-2-(4-phenoxyphenyl)-7-(1-prop-2-enoylpiperidin-4-yl)-4,5,6,7-tetrahydropyrazolo[1,5-a]pyrimidine-3-carboxamide]	–	< 50	–	–	< 50	< 50	< 50	–	+ (Below 50% Inhibition at 1 uM)
